Key:
[1] = Inhibitory concentration against glyceraldehyde-3-phosphate dehydrogenase was determined as log 1/IC50
[2] = Inhibitory concentration of compound against glyceraldehyde-3-phosphate dehydrogenase was determined
[3] = Inhibitory concentration against glyceraldehyde-3-phosphate dehydrogenase was determined as log 1/IC50; remark: listed apart in the source

Row | Structure (SMILES) | IC50 [1] | also measured
1 | O=c1ccc2ccccc2o1 [2H-chromen-2-one] | 692 µM | –
2 | C=C(C)[C@@H]1Cc2c(cc(O)c3ccc(=O)oc23)O1 | 191 µM | –
3 | COc1cccc(C(=O)NC2C(O)[C@@H](CO)O[C@H]2n2cnc3c(NCc4cccc5ccccc45)ncnc32)c1 (stereo partly drawn) [N-((2R,5R)-4-Hydroxy-5-hydroxymethyl-2-{6-[(naphthalen-1-ylmethyl)-amino]-purin-9-yl}-tetrahydro-furan-3-yl)-3-methoxy-benzamide] | – | IC50 [2]: 12 µM
4 | COc1ccc(-n2nc3c4ccccc4n([C@@H]4O[C@H](COC(=O)c5ccccc5)[C@@H](OC(=O)c5ccccc5)[C@H]4OC(=O)c4ccccc4)cc-3c2=O)cc1 [Adenosine analogue] | – | IC50 [2]: 45 µM
5 | COc1cccc(C(=O)NC2C(O)[C@@H](COP(=O)(O)O)O[C@H]2n2cnc3c(NCc4cccc5ccccc45)ncnc32)c1 (stereo partly drawn) [Phosphoric acid mono-((2R,5R)-3-hydroxy-4-(3-methoxy-benzoylamino)-5-{6-[(naphthalen-1-ylmethyl)-amino]-purin-9-yl}-tetrahydro-furan-2-ylmethyl) ester] | – | IC50 [2]: 5 µM
6 | COc1ccc2ccc(=O)oc2c1CC=C(C)C [osthole] | 209 µM | –
7 | CCOC(=O)c1cn([C@@H]2O[C@H](COC(=O)c3ccccc3)[C@@H](OC(=O)c3ccccc3)[C@H]2OC(=O)c2ccccc2)c2ccc(Cl)cc2c1=O | – | IC50 [2]: 29 µM
8 | C=C(C)[C@H]1Cc2cc3ccc(=O)oc3cc2O1 | 145 µM | –
9 | CC1(C)C=Cc2c(ccc3ccc(=O)oc23)O1 | 123 µM | –
10 | CC(=O)Oc1ccc2oc(=O)c(-c3ccccc3)cc2c1 | 123 µM | –
11 | COc1cc2ccc(=O)oc2cc1O [7-hydroxy-6-methoxy-2H-chromen-2-one] | 257 µM | –
12 | COc1c2c(cc3oc(=O)ccc13)OCC2 | 347 µM | –
13 | C=C(C)[C@H]1O[C@@H]1c1c(O)ccc2ccc(=O)oc12 | 129 µM | –
14 | CC1(C)C=Cc2cc3ccc(=O)oc3cc2O1 [8,8-Dimethyl-8H-pyrano[3,2-g]chromen-2-one] | 195 µM | –
15 | CC(=O)Oc1ccc(-c2cc3cc(OC(C)=O)c(OC(C)=O)cc3oc2=O)cc1OC(C)=O [6,7-diacetoxy-3-[30,40-diacetoxyphenyl]-coumarin] | 17.8 µM | –
16 | COc1cccc(C(=O)NC2C(O)[C@@H](COP(=O)([O-])OP(=O)(O)OC[C@H]3O[C@@H]([n+]4ccc(C(N)=O)cc4)C(O)C3O)O[C@H]2n2cnc3c(NCc4cccc5ccccc45)ncnc32)c1 (some centres undefined) [Adenosine analogue] | – | IC50 [2]: 0.1 µM
17 | O=c1ccc2ccc(O)cc2o1 [umbelliferone] | 617 µM | –
18 | C=CC(C)(C)c1cc2ccc(O)cc2oc1=O | 162 µM | –
19 | C=CC(C)(C)c1cc2cc3c(cc2oc1=O)O[C@H](C(C)(C)O)C3 [Chalepin] | – | IC50 [3]: 55 µM

The remaining compounds from weak to strong by IC50 [1], led by results:

Row | IC50 [1] | Structure (SMILES) | also measured
20 | 85.1 µM | COc1cccc(-c2cc3cc(OC(C)=O)ccc3oc2=O)c1 | –
21 | 74.1 µM | CC1=C2c3c(ccc4ccc(=O)oc34)OCC2OC1=O (centres undefined) | –
22 | 67.6 µM | O=c1oc2ccccc2cc1-c1cccc(O)c1 | –
23 | 64.6 µM | CC(=O)Oc1ccc2oc(=O)c(-c3ccc4c(c3)OCO4)cc2c1 | –
24 | 56.2 µM | O=c1oc2ccc(/N=C/c3ccc[nH]3)cc2cc1-c1ccc2c(c1)OCO2 | –
25 | 56.2 µM | O=c1oc2ccc(/N=C/c3ccco3)cc2cc1-c1ccc2c(c1)OCO2 | –
26 | 52.5 µM | CC(=O)Oc1ccc(-c2cc3cc(OC(C)=O)ccc3oc2=O)cc1 | –
27 | 38.9 µM | O=c1oc2ccccc2cc1-c1ccc(O)cc1 [3-(4-Hydroxy-phenyl)-chromen-2-one] | –
28 | 30.9 µM | O=c1oc2c(O)cccc2cc1-c1ccc2c(c1)OCO2 | –
29 | 17 µM | CC(=O)Oc1cccc(-c2cc3cc(OC(C)=O)ccc3oc2=O)c1 | –
